Here are results for six molecules from patent publication US20220193170A1, “Nutraceutical Reduction Prevention and/or Reversion of Multiple Sclerosis” (Therapeutic Solutions International, Inc., priority 2020, published 2022).

Assay [1] relates to CD4+, CD25+, FoxP3+ Treg cells. The settings on record: responding patients; cited from earlier work.
The test system of the next assay is Treg. The settings on record: in vivo; cited from earlier work.
In assay [2] the test system is Experimental autoimmune encephalomyelitis. The experiment in a line: Experimental autoimmune encephalomyelitis (EAE) clinical score. The settings on record: female SJL/J mice, by gavage, alone and/or with Copaxone, observed at days 10, 20 and 30; bar graph. It is filed as in vivo. On the procedure:
Experimental autoimmune encephalomyelitis was induced in female SJL/J (6-8 weeks old) by injection PLP139-151 peptide (50 μg) emulsified in complete Freund's adjuvant (BD Diagnostics), containing killed Mycobacterium tuberculosis (400 μg/ml) in a volume of (50 μl per area). Animals were randomized to receive by QuadraMune™ by gavage, and/or Copaxone. Mice where observed for symptoms at days 10, 20 and 30.
Clinical scores (0, no symptoms; 1, limp tail; 2, partial paralysis of hind limbs; 3, complete paralysis of hind limbs or partial hind and front limb paralysis; 4, tetraparalysis; 5, moribund; 6, death).
Experimental autoimmune encephalomyelitis was induced in female SJL/J (6-8 weeks old) by injection PLP^139-151 peptide (50 μg) emulsified in complete Freund's adjuvant (BD Diagnostics), containing killed Mycobacterium tuberculosis (400 μg/ml) in a volume of (50 μl per area). Animals were randomized to receive pterostilbene by gavage, and/or Copaxone. Mice where observed for symptoms at days 10, 20 and 30.
Experimental autoimmune encephalomyelitis was induced in female SJL/J (6-8 weeks old) by injection PLP139-151 peptide (50 μg) emulsified in complete Freund's adjuvant (BD Diagnostics), containing killed Mycobacterium tuberculosis (400 μg/ml) in a volume of (50 μl per area). Animals were randomized to receive sulforaphane by gavage, and/or Copaxone. […]

Another assay has as its system acute pancreatitis. Particulars: AP mice gavaged with TUDCA; cited from earlier work.
For the next assay, the system named is IL-6 production. The settings on record: cited from earlier work.
The subject of a further assay is osteoblasts. Particulars: in vitro, cited from earlier work.
Assay [3] has as its system oxygen-induced retinopathy. Particulars: OIR mice; UDCA 50 mg/kg, P7-P17; cited from earlier work.
The next assay relates to osteoporosis. Particulars: OVX mice, vs PBS treatment group, cited from earlier work.
The mark [4] stands for this setting: serum, not significantly different.

Consider glatiramer acetate, for which the “CD4+, CD25+, FoxP3+ Treg cells in peripheral blood and cerebral spinal fluid” value in assay [1] is recorded as “increased levels”.
In the case of Interferon beta, the “Treg activity after initiation of therapy” value with Treg was “renormalization of Treg activity”.
As to `CC1=CC(=O)C(C(C)C)=CC1=O` [thymoquinone], in assay [2], the “EAE Score” value was “reduction in EAE Score”.
With `C[S+]([O-])CCCCN=C=S` (stereo not drawn) [sulforaphane], the “EAE Score” value in assay [2] is recorded as “reduction in EAE Score”.
For `C[C@H](CCC(=O)NCCS(=O)(=O)O)[C@H]1CC[C@H]2[C@@H]3[C@@H](O)C[C@@H]4C[C@H](O)CC[C@]4(C)[C@H]3CC[C@]12C` [TUDCA, tauroursodeoxycholic acid], in the assay on acute pancreatitis, the “expression of farnesoid-x-receptor (FXR) and its target gene FGF15” value was “downregulated”; the “pancreatic and intestinal barrier function injury” value was “mitigated”. In addition, in the assay with IL-6 production, the “Inflammation and IL-6 production triggered by infection with Brucella abortus” value is listed as “reduced”. In the assay on osteoblasts (100 nM, 1 μM), the “proliferation and viability of osteoblasts and osteoblast differentiation and mineralization” value was “significantly increased”. Moreover, the “detrimental effects of methylprednisolone (methylprednisolone-induced osteoblast apoptosis)” value in the assay with osteoblasts is recorded as “neutralized”. For the same molecule, the “extension of neovascular and avascular areas” value in assay [3] was “no changes”. Moreover, in the assay with osteoporosis (setting [4]), the CTX level result was “lower” and the PINP level entry is on record as “higher”. Moreover, in the assay with osteoporosis, the “percentage bone volume with respect to total bone volume, bone mineral density, distal femur trabeculae” value is listed as “increased”; the “trabecular structures in the distal femur (micro-CT and histology)” value is “preserved more trabecular structures”.
Turning to `C[C@H](CCC(=O)NCC(=O)O)[C@H]1CC[C@H]2[C@@H]3[C@@H](O)C[C@@H]4C[C@H](O)CC[C@]4(C)[C@H]3CC[C@]12C` [GUDCA], in assay [3], the “extension of neovascular and avascular areas” value was “no changes”.
